In PMC11433679, “Synthesis, Characterization, and Biological Evaluation of N-Methyl Derivatives of Norbelladine” (Molecules, 2024):
Several values for one entry are separate records, joined by “and”; a condition that tells them apart may be missing. Identical values can stand only once.

Assays:
[1] = target: butyrylcholinesterase (BuChE) (Equus caballus, UniProt P81908); experiment: Butyrylcholinesterase inhibition, colorimetric (DTNB, butyrylthiocholine substrate); format: biochemical, equine; conditions: for inhibition at 500 µM: highest tested concentration; for IC50: butyrylthiocholine substrate; for fold increase in BuChE inhibition by N-methylation compared to non-N-methylated control: ratio of IC50 values
Protocol: (§1) Pharmacological properties specific to Alzheimer’s disease (AD) were tested on acetylcholinesterases (AChEs) from electric eels and butyrylcholinesterase (BuChE) from equine species using a colorimetric kit (ab138871, Abcam, Cambridge, UK), which measures enzyme activity and inhibition. The reaction was carried out in a final volume of 100 µL in 96-well microplates. […] A 5 µL reaction mixture containing equal amounts of acetylthiocholine/butyrylthiocholine (20X) and DTNB (20X) was then added to each well. Subsequently, the enzyme solution was added to a final concentration of 2 U/mL, and absorbance was measured at 412 nm in kinetic mode for 10 min using a microplate reader (Synergy H1, Biotek, Dorval, QC, Canada). DTNB (Bis(3-carboxy-4-nitrophenyl) disulfide, Ellman’s Reagent), acetylthiocholine iodide, and butyrylthiocholine iodide were obtained from Sigma-Aldrich (Oakville, ON, Canada). Galanthamine (50–0.05 µM) and rivastigmine (400–0.4 µM) were used as positive controls for the AChE and BuChE assays, respectively. Compounds showing inhibition during preliminary screenings were selected for further IC50 value assessment using serially diluted concentrations. All experiments were performed at least twice. Inhibition was calculated using the formula [24]:I = 100 × (1 − ΔAi/ΔA0), where ΔAi is the difference in absorbance between two time points in the presence of the inhibitor, and ΔA0 is the difference in absorbance between two-time points in the presence of DMSO or an appropriate solvent.

[2] = Cytotoxicity assay (Cell-Titer GLO, ATP levels, 72 h); format: cell-based; conditions: human; HCT-8 cells, 72 h treatment, 4–500 µM
From the text: (§2) The human hepatocarcinoma Huh7 cell line (CVCL_0336) was maintained in Dulbecco’s Modified Eagle Medium (DMEM) supplemented with 10% fetal bovine serum (FBS) and 1% penicillin/streptomycin solution (PS, from GIBCO, Fisher Scientific, Toronto, ON, Canada). The human leukemia monocytic THP-1 (CVCL_0006) and adenocarcinoma HCT-8 cell lines (CVCL_2478) were maintained in Roswell Park Memorial Institute (RPMI) medium supplemented with 10% FBS or horse serum, respectively, and 1% PS. All reagents and antibiotics were purchased from GIBCO, Fisher Scientific, Toronto, ON, Canada). Cells were kept in an incubator at 37 °C and 5% CO2.
(§3) In total, 10 × 10^3 Huh7 cells/well, or 5 × 10^4 THP-1 or HCT-8 cells/well were plated in 96-well plates and incubated at 37 °C and 5% CO2. Compounds (4–500 µM, 2-fold dilutions) were added the next day and cytotoxicity was assessed 72 h later by measuring ATP levels with the Cell-Titer GLO assay kit (Promega, Madison, WI, USA). Cell-Titer GLO reagent was added to the plates previously equilibrated to room temperature for 30 min. Plates were mixed for 2 min and incubated for 10 min at room temperature. The luminescence signal was measured with a microplate reader (Synergy H1, Biotek, Dorval, QC, Canada). Viability percentage was calculated as the ratio of the signal of cells exposed to compounds to the signal of cells exposed to solvent (methanol). All experiments were performed at least twice. Median cytotoxic concentrations (CC50) were calculated using GraphPad prism 10.0.2 (GraphPad Software, San Diego, CA, USA).

dengue virus (DENV) = experiment: microbe, parasite or virus in culture; format: cell-based; conditions: for SI DENV (selectivity index, ratio CC50/EC50): CC50 Huh7 / EC50 DENV; for EC50: Dengue virus, Huh-7, 72 h, DENVGFP in Huh7 cells, MOI 0.1, 3 days
[3] = target: T1, acetylcholinesterase (AChE) (Electrophorus electricus, UniProt O42275); experiment: Acetylcholinesterase inhibition, colorimetric (DTNB, acetylthiocholine substrate); format: biochemical, electric eel; conditions: for inhibition at 500 µM: highest tested concentration; for IC50: Nd = >500 μM
T1 construct: purchased Abcam ab138871
Protocol: as §1

[4] = system: human coronavirus OC43 (HCoV-OC43); experiment: Antiviral assay, HCoV-OC43 replication in HCT-8 cells (flow cytometry); format: cell-based, human betacoronavirus OC43; conditions: for EC50: Betacoronavirus 1, OC43, HCT-8, 72 h, read-out: EC50 OC-43; for SI OC-43 (selectivity index, ratio CC50/EC50): CC50 HCT-8 / EC50 OC-43
[5] = Cytotoxicity assay (Cell-Titer GLO, ATP levels, 72 h); format: cell-based, human; conditions: human, 72 h treatment, 4–500 µM
From the text: as §2, §3

pseudotyped HIV-1 = experiment: microbe, parasite or virus in culture; format: cell-based, human immunodeficiency virus (HIV)-1; conditions: for SI HIV-1 (selectivity index, ratio CC50/EC50): CC50 THP-1 / EC50 HIV-1; for EC50: Human immunodeficiency virus 1, THP-1, 72 h, read-out: EC50 HIV-1
AChE = system: AChE; parameters: method as in earlier work; conditions: ref 19 (Vaněčková et al.); cited from earlier work
Huh7 cells = experiment: Cytotoxicity assay (Cell-Titer GLO, ATP levels, 72 h); format: cell-based, human; conditions: 72 h treatment, 4–500 µM
From the text: as §2, §3

THP-1 cells = experiment: as above; format: cell-based, human; conditions: 72 h treatment, 4–500 µM
From the text: as §2, §3

Chain of butyrylcholinesterase (BuChE) (P81908 whole entry): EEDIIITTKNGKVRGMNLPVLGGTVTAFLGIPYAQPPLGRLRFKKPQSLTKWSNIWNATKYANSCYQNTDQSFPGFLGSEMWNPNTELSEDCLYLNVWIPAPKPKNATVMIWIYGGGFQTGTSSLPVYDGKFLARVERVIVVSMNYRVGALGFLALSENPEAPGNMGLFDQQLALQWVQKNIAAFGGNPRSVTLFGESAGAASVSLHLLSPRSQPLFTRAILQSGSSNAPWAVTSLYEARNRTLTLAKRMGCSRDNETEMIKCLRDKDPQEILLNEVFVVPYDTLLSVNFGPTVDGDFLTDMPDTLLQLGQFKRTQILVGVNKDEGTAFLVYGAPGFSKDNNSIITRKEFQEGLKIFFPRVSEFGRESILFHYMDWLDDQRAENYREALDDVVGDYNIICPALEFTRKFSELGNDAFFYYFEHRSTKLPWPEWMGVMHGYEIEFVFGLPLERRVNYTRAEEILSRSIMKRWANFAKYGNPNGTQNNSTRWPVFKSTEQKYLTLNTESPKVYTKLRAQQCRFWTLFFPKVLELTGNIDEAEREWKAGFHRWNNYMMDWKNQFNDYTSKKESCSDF
T1 sequence (O42275 24-633): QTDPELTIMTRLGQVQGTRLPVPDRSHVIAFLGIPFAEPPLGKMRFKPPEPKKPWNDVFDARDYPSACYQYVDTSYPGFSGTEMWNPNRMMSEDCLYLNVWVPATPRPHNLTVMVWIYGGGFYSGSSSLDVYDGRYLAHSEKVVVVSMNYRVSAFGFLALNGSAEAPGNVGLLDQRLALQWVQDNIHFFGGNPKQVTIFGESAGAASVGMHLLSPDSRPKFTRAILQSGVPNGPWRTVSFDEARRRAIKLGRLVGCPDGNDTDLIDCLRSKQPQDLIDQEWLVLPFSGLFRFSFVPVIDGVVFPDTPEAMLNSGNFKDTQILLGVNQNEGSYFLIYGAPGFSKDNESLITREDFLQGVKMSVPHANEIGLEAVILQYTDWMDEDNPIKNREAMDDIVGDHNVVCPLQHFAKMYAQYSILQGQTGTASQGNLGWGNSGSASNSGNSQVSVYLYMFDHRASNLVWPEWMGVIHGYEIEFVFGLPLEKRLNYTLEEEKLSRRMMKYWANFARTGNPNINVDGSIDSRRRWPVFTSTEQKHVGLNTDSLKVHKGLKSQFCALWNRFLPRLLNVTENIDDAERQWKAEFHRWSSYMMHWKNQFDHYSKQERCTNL

Question: With COc1ccc(CNCCc2ccc(O)cc2)cc1OC [3′,4′-O-dimethylnorbelladine] as the compound, how does the inhibition at 500 µM [1] read?
Answer: The inhibition at 500 µM was 94%.

Question: What about the IC50 [1] of the same compound?
Answer: The IC50 was 108 µM.

Question: What about the CC50 at 72 h [2] of the same compound?
Answer: Its CC50 at 72 h is greater than 500 µM.

Question: What about the “SI DENV (selectivity index, ratio CC50/EC50)” value (dengue virus (DENV)) of the same compound?
Answer: The value was greater than 3.64.

Question: And the EC50 (dengue virus (DENV))?
Answer: The EC50 was 137 µM.

Question: What about the inhibition at 500 µM [3] of the same compound?
Answer: The inhibition at 500 µM was 37%.

Question: What about the IC50 [3] of the same compound?
Answer: The IC50 was greater than 500 µM.

Question: And the EC50 [4]?
Answer: Its EC50 is 84.7 µM.

Question: What about the “SI OC-43 (selectivity index, ratio CC50/EC50)” value [4] of the same compound?
Answer: Its value is greater than 5.91.

Question: And the CC50 at 72 h ([5]; Huh7 cells)?
Answer: Its CC50 at 72 h is greater than 500 µM.

Question: And the CC50 at 72 h ([5]; THP-1 cells)?
Answer: The CC50 at 72 h was greater than 500 µM.

Question: And the “SI HIV-1 (selectivity index, ratio CC50/EC50)” value (pseudotyped HIV-1)?
Answer: The value was greater than 2.63.

Question: What about the EC50 (pseudotyped HIV-1) of the same compound?
Answer: Its EC50 is 190 µM.

Question: Which results are given for COc1cc(CNCCc2ccc(O)cc2)ccc1O [3′-O-methylnorbelladine]?
Answer: inhibition at 500 µM [1]: 96%; IC50 [1]: 27.5 µM; CC50 at 72 h [2]: > 500 µM; SI DENV (selectivity index, ratio CC50/EC50) (dengue virus (DENV)): >3.62; EC50 (dengue virus (DENV)): 138 µM; inhibition at 500 µM [3]: 10%; IC50 [3]: > 500 µM; EC50 [4]: 74.5 µM; SI OC-43 (selectivity index, ratio CC50/EC50) [4]: >6.71; CC50 at 72 h ([5]; Huh7 cells): > 500 µM; CC50 at 72 h ([5]; THP-1 cells): > 500 µM; SI HIV-1 (selectivity index, ratio CC50/EC50) (pseudotyped HIV-1): >2.83; EC50 (pseudotyped HIV-1): 177 µM

Question: For COc1ccc(CN(C)CCc2ccc(O)cc2)cc1O [4′-O,N-dimethylnorbelladine, 5-(((4-hydroxyphenethyl)(methyl)amino)methyl)-2-methoxyphenol], which inhibition at 500 µM [1] is on record?
Answer: Its inhibition at 500 µM is 99%.

Question: And the IC50 [1]?
Answer: The IC50 was 10.4 µM.

Question: What about the “fold increase in BuChE inhibition by N-methylation compared to non-N-methylated control” value [1] of the same compound?
Answer: The value was 1.5 fold.

Question: What about the CC50 at 72 h [2] of the same compound?
Answer: The CC50 at 72 h was greater than 500 µM.

Question: What about the “SI DENV (selectivity index, ratio CC50/EC50)” value (dengue virus (DENV)) of the same compound?
Answer: The value was 4.81.

Question: What about the EC50 (dengue virus (DENV)) of the same compound?
Answer: The EC50 was 95.8 µM.

Question: What about the inhibition at 500 µM [3] of the same compound?
Answer: Its inhibition at 500 µM is 43.6%.

Question: What about the IC50 [3] of the same compound?
Answer: The IC50 was greater than 500 µM.

Question: And the EC50 [4]?
Answer: Its EC50 is 42.4 µM.

Question: And the “SI OC-43 (selectivity index, ratio CC50/EC50)” value [4]?
Answer: The value was greater than 11.80.

Question: And the CC50 at 72 h ([5]; Huh7 cells)?
Answer: The CC50 at 72 h was 460 µM.

Question: And the CC50 at 72 h ([5]; THP-1 cells)?
Answer: Its CC50 at 72 h is greater than 500 µM.

Question: What about the “SI HIV-1 (selectivity index, ratio CC50/EC50)” value (pseudotyped HIV-1) of the same compound?
Answer: The value was greater than 4.06.

Question: And the EC50 (pseudotyped HIV-1)?
Answer: Its EC50 is 123 µM.

Question: For COc1ccc(CCN(C)Cc2ccc(O)c(OC)c2)cc1 [4′-O-demethylbelladine], which anti-AChE activity (AChE) is on record?
Answer: Its anti-AChE activity is “weak”.

Question: What does the source list for COc1ccc(CNCCc2ccc(O)cc2)cc1O [4′-O-methylnorbelladine]?
Answer: inhibition at 500 µM [1]: 99%; IC50 [1]: 16.1 µM; CC50 at 72 h [2]: > 500 µM; SI DENV (selectivity index, ratio CC50/EC50) (dengue virus (DENV)): >6.28; EC50 (dengue virus (DENV)): 79.6 µM; inhibition at 500 µM [3]: 33.6%; IC50 [3]: > 500 µM; EC50 [4]: 63 µM; SI OC-43 (selectivity index, ratio CC50/EC50) [4]: >7.93; CC50 at 72 h ([5]; Huh7 cells): > 500 µM; CC50 at 72 h ([5]; THP-1 cells): > 500 µM; SI HIV-1 (selectivity index, ratio CC50/EC50) (pseudotyped HIV-1): >3.06; EC50 (pseudotyped HIV-1): 163 µM

Question: Which inhibition at 500 µM [1] does the source give for CN(CCc1ccc(O)cc1)Cc1ccc(O)c(O)c1 [N-methylnorbelladine] here?
Answer: Its inhibition at 500 µM is 96%.

Question: And the IC50 [1]?
Answer: The IC50 was 3.94 µM and 4 µM.

Question: What about the “fold increase in BuChE inhibition by N-methylation compared to non-N-methylated control” value [1] of the same compound?
Answer: Its value is 2 fold.

Question: What about the CC50 at 72 h [2] of the same compound?
Answer: Its CC50 at 72 h is greater than 500 µM.

Question: What about the “SI DENV (selectivity index, ratio CC50/EC50)” value (dengue virus (DENV)) of the same compound?
Answer: The value was 5.70.

Question: What about the EC50 (dengue virus (DENV)) of the same compound?
Answer: The EC50 was 67.7 µM.

Question: And the inhibition at 500 µM [3]?
Answer: Its inhibition at 500 µM is 31.2%.

Question: What about the IC50 [3] of the same compound?
Answer: Its IC50 is greater than 500 µM.

Question: What about the EC50 [4] of the same compound?
Answer: The EC50 was 66.8 µM.

Question: And the “SI OC-43 (selectivity index, ratio CC50/EC50)” value [4]?
Answer: The value was greater than 7.49.

Question: And the CC50 (Huh7 cells)?
Answer: The CC50 was 386 µM.

Question: And the CC50 at 72 h ([5]; Huh7 cells)?
Answer: The CC50 at 72 h was 386 µM.

Question: What about the CC50 at 72 h ([5]; THP-1 cells) of the same compound?
Answer: Its CC50 at 72 h is 227 µM.

Question: What about the CC50 (THP-1 cells) of the same compound?
Answer: Its CC50 is 227 µM.

Question: What about the “SI HIV-1 (selectivity index, ratio CC50/EC50)” value (pseudotyped HIV-1) of the same compound?
Answer: The value was 5.36.

Question: What about the EC50 (pseudotyped HIV-1) of the same compound?
Answer: Its EC50 is 42.3 µM.

Question: What does the source list for Oc1ccc(CCNCc2ccc(O)c(O)c2)cc1 [Norbelladine]?
Answer: inhibition at 500 µM [1]: 95%; IC50 [1]: 8 µM; CC50 at 72 h [2]: > 500 µM; SI DENV (selectivity index, ratio CC50/EC50) (dengue virus (DENV)): 3.30; EC50 (dengue virus (DENV)): 70.6 µM; inhibition at 500 µM [3]: 24.5%; IC50 [3]: > 500 µM; EC50 [4]: 55.7 µM; SI OC-43 (selectivity index, ratio CC50/EC50) [4]: >8.98; CC50 (Huh7 cells): 233 µM; CC50 at 72 h ([5]; Huh7 cells): 233 µM; CC50 at 72 h ([5]; THP-1 cells): 148 µM; CC50 (THP-1 cells): 148 µM; SI HIV-1 (selectivity index, ratio CC50/EC50) (pseudotyped HIV-1): 2.22; EC50 (pseudotyped HIV-1): 66.9 µM
